Laboratory results taken from patent US20080199449A1, “Methods and Compositions for Use in Treating Vascular Diseases and Conditions” (The General Hospital Corporation, priority 2005, published 2008).
“Also recorded” adds a separate entry of the source. Values belong to the compound of their own block, whether it stands above or below them.

Columns and labels:
[1] = tested on: gridlock phenotype (atresia of the proximal aorta in grl^m145 mutants); assay: Suppression of the gridlock phenotype (restoration of trunk and tail circulation) in grl^m145 mutant embryos; assay type: in vivo, zebrafish
Method: Screening for suppressors of the gridlock phenotype. The screen was performed as previous described with modifications (Peterson et al., Nature Biotechnology 22:595-599, 2004). Briefly, pairs of homozygous grl^m145 zebrafish were mated, and fertilized eggs were arrayed in 96-well plates containing E3 embryo buffer. At the 6-somite stage, small molecules from the DiverSet E library (Chembridge) were added to each well, yielding a final concentration of 2.5 μM. Embryos were incubated at 28.5° C. for 48 hrs. Circulation to the tail was assessed visually using a dissecting microscope.
Fluorescent microangiography. Fluorescence microangiography was performed as previously described (Weinstein et al., Nature Medicine 1:1143-1147, 1995).

[2] = tested on: gridlock phenotype (atresia of the proximal aorta in grl^m145 mutants); conditions: whole zebrafish embryos; Peterson et al., Nature Biotechnology 22:595-599, 2004; cited from earlier work
[3] = tested on: dorsal aorta and cardinal veins; assay: Artery-vein morphology in embryos expressing GFP in endothelial cells (fli-1 promoter); assay type: in vivo, zebrafish; conditions: for Vascular defects at higher doses: doses higher than the 1- to 5 μM suppressing range
zebrafish embryos = assay: Gross embryonic morphology and lethality after compound exposure; assay type: in vivo

Compound: COc1ccc(SCCc2ccncc2)cc1.Cl [GS4012]
Suppression of the gridlock phenotype, single treatment at sub-effective dose ([1]; GS4898 0.75 μM, LY294002 3 μM, wortmannin 0.075 μM, GS4012 0.7 μg/mL (FIG. 1F)): does not suppress | Suppression of the gridlock phenotype (tail circulation) ([1]; homozygous grl^m145 mutant zebrafish embryos): suppressed | Suppression of the vascular defect in gridlock mutant embryos (earlier screen) [2]: suppresses the vascular defect in gridlock mutant embryos

Vascular defects at higher doses [3]: severe vascular defects
Compound: O=c1cc(N2CCOCC2)oc2c(-c3ccccc3)cccc12 [LY294002]

Compound: N#C/C(=C(/N)Sc1ccc(N)cc1)c1ccccc1C(F)(F)F [SL327]
Gross embryonic morphology, treatment starting at 12-hpf (zebrafish embryos; 36-hpf embryos, GS4898 10 μM, SL327 60 μM (FIG. 5)): moderately deformed tail curvature, but otherwise grossly intact head organogenesis, somitogenesis, and yolk extension | Embryonic lethality and gross defects, treatment at stages earlier than 12-hpf (zebrafish embryos; treatment of embryos at earlier stages (FIG. 5)): high degree of embryonic lethality and variable gross morphologic defects

Compound: N#CC(=C(/N)Sc1ccccc1N)/C(C#N)=C(\N)Sc1ccccc1N [U0126]
Effect on aorta (artery formation) ([3]; 48-hpf fli-1 GFP embryos, GS4898 15 μM, U0126 100 μM, SL327 (FIG. 3E-G)): either loss or reduction of aorta; also recorded: the aorta is greatly reduced | Effect on vein (posterior/common cardinal vein, vein formation) ([3]; 48-hpf fli-1 GFP embryos, GS4898 15 μM, U0126 100 μM, SL327 (FIG. 3F, G)): expansion of the common cardinal vein; also recorded: enlarged

Compound: COC[C@H]1OC(=O)c2coc3c2[C@@]1(C)C1=C(C3=O)[C@@H]2CCC(=O)[C@@]2(C)C[C@H]1OC(C)=O [wortmannin]
Vascular defects at higher doses [3]: severe vascular defects
